Assay [1] deals with T1, human ETB receptor (Homo sapiens, UniProt P24530).
T1 construct: expressed in transfected cells; host or cells: CHO-K1 cells, pRc-CMW (so in the source) expression vector, electroporation; membranes used
T1 sequence (P24530 27-442): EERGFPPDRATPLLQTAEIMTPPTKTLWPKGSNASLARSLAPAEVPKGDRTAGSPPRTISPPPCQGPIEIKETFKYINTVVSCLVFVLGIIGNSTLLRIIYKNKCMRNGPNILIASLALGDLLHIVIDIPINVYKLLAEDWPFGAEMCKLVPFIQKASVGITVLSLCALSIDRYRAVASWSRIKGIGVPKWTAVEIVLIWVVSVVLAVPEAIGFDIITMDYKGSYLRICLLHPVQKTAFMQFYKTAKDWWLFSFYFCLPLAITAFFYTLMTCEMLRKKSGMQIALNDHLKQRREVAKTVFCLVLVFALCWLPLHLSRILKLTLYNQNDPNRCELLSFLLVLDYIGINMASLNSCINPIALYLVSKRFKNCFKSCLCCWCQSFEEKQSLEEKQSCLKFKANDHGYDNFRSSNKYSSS
The assay can be described thus: ERBA-B: [125I]-ET-1 binding, recombinant human ETB receptor expressed in CHO-K1 cells. As to conditions: human cloned ETB receptor, read-out: ERBA-B IC50, human cloned receptor data.

Assay [2] deals with T2, ETA (Oryctolagus cuniculus, UniProt A5A8K3).
T2 sequence (A5A8K3 21-427): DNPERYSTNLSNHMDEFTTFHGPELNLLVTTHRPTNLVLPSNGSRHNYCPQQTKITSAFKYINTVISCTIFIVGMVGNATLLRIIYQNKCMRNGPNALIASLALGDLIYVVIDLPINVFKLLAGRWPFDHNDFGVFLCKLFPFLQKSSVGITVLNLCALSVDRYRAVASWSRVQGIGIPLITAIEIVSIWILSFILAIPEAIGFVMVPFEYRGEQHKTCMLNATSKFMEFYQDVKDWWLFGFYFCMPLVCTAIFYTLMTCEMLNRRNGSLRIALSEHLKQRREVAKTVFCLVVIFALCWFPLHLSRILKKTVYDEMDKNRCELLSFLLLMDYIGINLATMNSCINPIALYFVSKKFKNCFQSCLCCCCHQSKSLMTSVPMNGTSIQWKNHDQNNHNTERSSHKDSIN
As to the kind of experiment: VERA-A: antagonism of ET-1 stimulated vasoconstriction in the rabbit femoral artery (ETA). Type of assay: cell-based. As to conditions: ET-1, rabbit femoral artery; read-out: VERA-A pA2 (converted). The protocol:
Male New Zealand rabbits were killed by cervical dislocation and exsanguination. Femoral and pulmonary arteries were isolated, cleaned of connective tissue, and cut into 4-mm rings. The endothelium was denuded by placing the rings over hypodermic tubing (32 gauge for femoral rings and 28 gauge for pulmonary rings, Small Parts, Inc, Miami, Fla.) and gently rolling them. […] Resting tension was adjusted to 3.0 g for femoral and 4.0 g pulmonary arteries; the rings were left for 90 minutes to equilibrate.

Assay [3] addresses T2, ETA. As to conditions: ERBA-A IC50, [125I]-ET-1, rabbit renal artery vascular smooth muscle cells.
For assay [4], the target named is T2, ETA.
Assay [5] concerns the target T3, ETB (Rattus norvegicus, UniProt P21451).
T3 sequence (P21451 27-442): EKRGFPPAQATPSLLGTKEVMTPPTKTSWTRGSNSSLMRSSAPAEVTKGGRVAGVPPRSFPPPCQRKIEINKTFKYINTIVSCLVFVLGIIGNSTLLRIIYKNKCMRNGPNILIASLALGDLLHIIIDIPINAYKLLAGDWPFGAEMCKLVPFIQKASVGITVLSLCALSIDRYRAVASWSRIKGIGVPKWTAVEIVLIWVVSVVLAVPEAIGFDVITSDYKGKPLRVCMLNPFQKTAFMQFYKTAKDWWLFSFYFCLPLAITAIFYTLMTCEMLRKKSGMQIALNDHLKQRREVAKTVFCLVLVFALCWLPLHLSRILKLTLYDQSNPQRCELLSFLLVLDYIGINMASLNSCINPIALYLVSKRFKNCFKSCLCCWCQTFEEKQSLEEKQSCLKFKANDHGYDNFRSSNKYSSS
Protocol: The tissue is made up of 20 mM tris(hydroxymethyl)aminomethane hydrochloride (Trizma) buffer, 2 mM ethylenediaminetetra acetate, 100 μM phenylmethylsulfonyl fluoride.
First, thaw one aliquot of frozen rat cerebellar membranes (2 mg protein in 0.5 mL). Next, add 0.5 mL membrane aliquot to 4.5 mL cold tissue buffer, polytron at 7,500 revolutions per minute for 10 seconds. Finally, dilute tissue suspension 1/100 (0.1 mL suspension+9.9 mL tissue buffer), polytron again, and place ice.
Mix in 150 μL of tissue to each tube, vortex briefly, then tap to force all liquids to bottom (total assay volume=250 μL). Then place the tubes in a 37° C. water bath for 2 hours.
Add 2.5 mL cold wash buffer (50 mM Trizma buffer) to each tube, filter, and then wash tube with additional 2.5 mL wash buffer and add to filter. Finally, wash filters with an additional 2.5 mL of cold wash buffer.
Count filters for radioactivity in gamma counter.

Structures can show the parent of a compound that is named as a salt. Where two headings read alike, the source gives them in different places.

For the compound `COc1ccc(C2(O)OC(=O)C(c3ccc4c(c3)OCO4)=C2Cc2ccc(S(C)(=O)=O)cc2)cc1` (stereo not shown) [Example 237, 3-Benzo[1,3]dioxol-5-yl-5-hydroxy-4-(4-methanesulfonylbenzyl)-5-(4-methoxyphenyl)-5H-furan-2-one], the figures for the IC50 in assay [1] and in assay [3] were greater than 2500 nM and 11 nM, respectively. Moreover, in assay [2], the Kb is 631 nM.
For `COc1ccc(CC2=C(c3cc(OC)cc(OC)c3)C(=O)OC2(O)c2ccc(OC)cc2)cc1` (stereo not shown) [Example 131, 3-(3,5-Dimethoxyphenyl)-5-hydroxy-4-(4-methoxybenzyl)-5-(4-methoxyphenyl)-5H-furan-2-one], the IC50 in assay [1] stood at 1350 nM; in assay [3], 15 nM. Also, in assay [2], the Kb is 501 nM.
As to `COc1ccc(C2(O)OC(=O)C(c3ccc4c(c3)OCO4)=C2Cc2cccnc2)cc1` (stereo not shown) [Example 160, 3-Benzo[1,3]dioxol-5-yl-5-hydroxy-5-(4-methoxyphenyl)-4-pyridin-3-ylmethyl-5H-furan-2-one], the IC50 in assay [3] turned out to be 350 nM; in assay [4], 55 nM.
Taken in the same sequence, the figures for `COc1ccc(C2(O)OC(=O)C(c3ccc4c(c3)OCO4)=C2Cc2cc(OC)c(OC)c(OC)c2)cc1` (stereo not shown) [Example 281, 3-benzo[1,3]dioxol-5-yl-5-hydroxy-5-(4-methoxyphenyl)-4-(3,4,5-trimethoxybenzyl)-5H-furan-2-one] were 0.6 nM and 7700 nM.
In the case of `COc1cc(OC)cc(/C(C(=O)O)=C(\Cc2ccc(NC(C)=O)cc2)C(=O)c2ccc(OC)c(C)c2)c1` [Example 386, Potassium 3-(4-Acetylamino-benzyl)-2-(3,5-dimethoxyphenyl)-4-(4-methoxy-3-methyl-phenyl)-4-oxo-but-2-enoate], the figures for the concentration for half-maximal inhibition (IC50) in assay [1] and in assay [3] were 2100 nM and 5 nM, respectively. In addition, the Kb in assay [2] is 126 nM.
Taken in the same sequence, the figures for `COc1ccc(C2(O)OC(=O)C(c3cc(OC)c4c(c3)OCO4)=C2Cc2cc(OC)c(OC)c(OC)c2)cc1C` (stereo not shown) [Example 361, 5-Hydroxy-3-(7-methoxy-benzo[1,3]dioxol-5-yl)-5-(4-methoxy-3-methyl-phenyl) -4-(3,4,5-trimethoxy-benzyl)-5H-furan-2-one] were 220 nM, 2 nM and 39.8 nM.
Taken in the same sequence, the figures for `COc1ccc(C2(O)OC(=O)C(c3cc(OC)c4c(c3)OCO4)=C2Cc2ccccc2)cc1` (stereo not shown) [Example 301, 4-Benzyl-5-hydroxy-3-(7-methoxy-benzo[1,3]dioxol-5-yl)-5(4-methoxy-phenyl)-5H-furan-2-one] were 660 nM, 5.6 nM and 100 nM.
Taken in the same sequence, the figures for `CCCCOc1ccc(CC2=C(c3ccc4c(c3)OCO4)C(=O)OC2(O)c2ccc(OC)cc2)cc1` (stereo not shown) [Example 93, 3-Benzo[1,3]dioxol-5-yl-4-(4-butoxybenzyl)-5-hydroxy-5-(4-methoxyphenyl)-5H -furan-2-one] were 220 nM, 5.2 nM and 1000 nM.
For the compound `COc1ccc(C2(O)OC(=O)C(c3cc(OC)c4c(c3)OCO4)=C2Cc2cc(OC)c(OC)c(OC)c2)cc1` (stereo not shown) [Example 356, 5-Hydroxy-3-(7-methoxy-benzo[1,3]dioxol-5-yl)-5-(4-methoxy-phenyl)-4-(3,4,5-trimethoxy-benzyl)-5H-furan-2-one], the IC50 in assay [1] came out at 340 nM; in assay [3], 0.25 nM. In addition, the Kb in assay [2] is 20 nM.
Taken in the same sequence, the figures for `COC(=O)c1cccc(C/C(C(=O)c2ccc(OC)cc2)=C(/C(=O)O)c2ccc3c(c2)OCO3)c1` [Example 405, 1,3-Benzodioxol-5-acetic acid, α-[1-[[3-(methoxycarbonyl)phenyl]methyl]-2-(4-methoxyphenyl)-2-oxoethylene]-, monopotassium salt] were 2700 nM, 7.4 nM and 251 nM.
Taken in the same sequence, the figures for `COc1cc(OC)cc(C2=C(Cc3cc(OC)c(OC)c(OC)c3)C(O)(c3ccc(OC)c(C)c3)OC2=O)c1` (stereo not shown) [Example 382, 3-(3,5-Dimethoxy-phenyl)-5-hydroxy-5-(4-methoxy-3-methyl-phenyl)-4-(3,4,5-trimethoxy-benzyl)-5H-furan-2-one] were greater than 250 nM, 0.9 nM and 158 nM.
Taken in the same sequence, the figures for `C=CCOc1cc(CC2=C(c3ccc4c(c3)OCO4)C(=O)OC2(O)c2ccc(OC)cc2)ccc1OC` (stereo not shown) [Example 163, 4-(3-Allyloxy-4-methoxybenzyl)-3-benzo[1,3]dioxol-5-yl-5-hydroxy-5-(4-methoxyphenyl)-5H-furan-2-one] were 880 nM, 20 nM and 126 nM.
In the case of `COc1ccc(C2(O)OC(=O)C(c3ccc4c(c3)OCO4)=C2Cc2ccc(NC(C)=O)cc2)cc1` (stereo not shown) [Example 80, N-{4-[4-Benzo[1,3]dioxol-5-yl-2-hydroxy-2-(4-methoxyphenyl)-5-oxo-2,5-dihydro-furan-3-ylmethyl]-phenyl}-acetamide], the IC50 in assay [1] was 880 nM; in assay [3] it was 1.4 nM. In assay [2], the Kb is 63.1 nM.
Taken in the same sequence, the figures for `COc1ccc(C2(O)OC(=O)C(c3cc(OC)c4c(c3)OCO4)=C2Cc2ccccc2)cc1C` (stereo not shown) [Example 360, 4-Benzyl-5-hydroxy-3-(7-methoxy-benzo[1,3]dioxol-5-yl)-5-(4-methoxy-3-methyl-phenyl)-5H-furan-2-one] were 1350 nM, 9.9 nM and 100 nM.
For the compound `COc1ccc(C2(O)OC(=O)C(c3ccc4c(c3)OCO4)=C2Cc2ccc(OC)c(Cl)c2)cc1` (stereo not shown) [Example 92, 3-Benzo[1,3]dioxol-5-yl-4-(3-chloro-4-methoxybenzyl)-5-hydroxy-5-(4-methoxyphenyl)-5H-furan-2-one], the values for the IC50 in assay [1] and in assay [3] were 1400 nM and 4 nM, respectively. For the same compound, the Kb in assay [2] was 251 nM.
Taken in the same sequence, the figures for `COc1ccc(C2(O)OC(=O)C(c3ccc4c(c3)OCO4)=C2Cc2ccc(OC)c(C)c2C)cc1` (stereo not shown) [Example 254, 3-Benzo[1,3]dioxol-5-yl-5-hydroxy-4-(4-methoxy-2,3-dimethylbenzyl)-5-(4-methoxyphenyl)-5H-furan-2-one] were 2900 nM, 17 nM and 200 nM.
With `C=CCOc1cc(CC2=C(c3cc(OC)cc(OC)c3)C(=O)OC2(O)c2ccc(OC)cc2)ccc1OC` (stereo not shown) [Example 135, 4-(3-Allyloxy-4-methoxybenzyl)-3-(3,5-dimethoxyphenyl)-5-hydroxy-5-(4-methoxyphenyl)-5H-furan-2-one], the concentration for half-maximal inhibition (IC50) came out at 330 nM in assay [5] and 9 nM in assay [3]. Moreover, the Kb in assay [2] was 126 nM.
With `COc1ccc(C(=O)/C(Cc2ccccc2)=C(\C(=O)O)c2ccc3c(c2)OCO3)cc1` [Example 351, Sodium 2-benzo[1,3]dioxol-5-yl-3-benzyl-4-(4-methoxyphenyl)-4-oxobut-2-enoate], the values for the IC50 in assay [1] and in assay [3] were greater than 250 nM and 16 nM, respectively. Also, the Kb in assay [2] is 631 nM.
As for `COc1ccc(C(=O)/C(Cc2ccc(OC(C)C)cc2)=C(\C(=O)O)c2ccc3c(c2)OCO3)cc1` [Example 352, 1,3-Benzodioxol-5-acetic acid, α-[2-(4-methoxyphenyl)-1-[[4-(1-methylethoxy)phenyl]methyl]-2-oxoethylene]-, (Z)-, choline salt], the results for the IC50 in assay [1] and in assay [3] were 1250 nM and 5 nM, respectively. Further, the Kb in assay [2] was 63.1 nM.

These data come from patent US5691373A, “Nonpeptide endothelin antagonists I” (Warner-Lambert Company, priority 1995, dated 1997).
